# Laboratory results published in patent publication US20230104283A1, “JNK INHIBITOR, AND PHARMACEUTICAL COMPOSITION AND USE THEREOF” (WUHAN LL SCIENCE AND TECHNOLOGY DEVELOPMENT CO. , LTD, priority 2019, published 2023).
# Assays:
# [1] = system: RAW264.7 phosphorylated c-Jun (Ser63); assay: RAW264.7 phosphorylated c-Jun whole cell assay; format: cell-based; conditions: Mus musculus; cytological assay, activity level; lipopolysaccharide-activated RAW264.7 cells, phospho-c-Jun (Ser63) ELISA
# Procedure: RAW264.7 (ATCC TIB-71) cells were purchased from BeNa Culture Collection and maintained in a high-glucose DMEM medium (Gibco) containing 10% fetal bovine serum (Gibco) and 1% penicillin-streptomycin (Gibco). All cells were cultured at 37° C. in 95% air and 5% CO2. All cells were seeded into 120 μL of cell culture medium in a 96-well plate at a density of 2×10^5 cells per well. The stock solution of compound (15 mM) was serially diluted in DMSO (Sigma) and further diluted in growth medium, and it was then added at 15 μL per well as a 10× concentrated solution, well mixed with the cells and incubated with the cells for 30 min. Concentration of the compound vehicle (DMSO) in each well was 0.2%. After incubation for 30 min, the cells were activated with […] lipopolysaccharide (Sigma). Lipopolysaccharide was added to the growth medium as a 10× concentrated solution at 15 μL per well. The cell plate was incubated for 1 h, and then all the medium was removed. The level of C-Jun protein with phosphorylation of serine at site 63 was measured using the whole cell lysate kit-phosphorylated C-Jun assay (PathScan® Phospho-c-Jun (Ser63) Sandwich ELISA Kit) (CST, 7145C) according to the manufacturer's instructions.
# JNK1 kinase = biological target: T1, JNK1 kinase (Homo sapiens, UniProt P45983); assay: JNK1 activity screening (time-resolved fluorometric HTRF kinase assay); format: biochemical; conditions: enzymatic assay, activity level
# T1 construct: purchased Carna Biosciences 04-163
# T1 sequence (P45983 whole entry): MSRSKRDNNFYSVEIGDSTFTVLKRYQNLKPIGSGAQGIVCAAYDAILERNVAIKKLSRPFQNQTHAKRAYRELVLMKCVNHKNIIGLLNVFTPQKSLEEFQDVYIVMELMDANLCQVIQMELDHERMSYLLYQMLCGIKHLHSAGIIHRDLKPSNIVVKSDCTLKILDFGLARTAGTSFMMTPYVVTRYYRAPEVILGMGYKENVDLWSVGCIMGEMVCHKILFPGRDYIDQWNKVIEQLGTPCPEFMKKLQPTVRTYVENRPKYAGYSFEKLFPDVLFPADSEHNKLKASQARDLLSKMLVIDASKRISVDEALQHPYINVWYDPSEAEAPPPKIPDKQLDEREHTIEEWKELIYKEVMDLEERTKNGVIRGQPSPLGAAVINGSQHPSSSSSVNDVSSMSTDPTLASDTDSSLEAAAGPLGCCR
# Procedure: JNK1 activity screening. JNK1 activity was detected using a 96-well (Cisbio, 66PL96025) time-resolved fluorometric assay. The JNK1 assay was conducted in the following assay buffer: 10 mM MgCl2 (Sigma, M1028), 1 mM MnCl2 (Sigma, M1787), 1 mM DTT (Sigma, D0632) and 1× Enzymatic buffer/kinase (Cisbio, 62EZBFDC). By using the assay buffer, 3 μL of 0.1 ng/μL JNK1 kinase (Carna Biosciences, 04-163) was added to a 96-well microplate, and then 4 μL of a compound diluted appropriately (with a DMSO content of 2.5%) was added. The resulting mixture was incubated at room temperature for 0.5 h. To start the reaction, the assay buffer was used to mix 0.003 μM ATP (Aladdin, A7699) and 30 μM substrate ATF2-GST fusion (Cisbio, 64CUS000AFPEB), and 3 μL of the mixed solution was added to the microplate. The resulting mixture was incubated at room temperature for 2.5 h. HTRF detection buffer ([…], 62SDBRDD) was used then to prepare a mixture of 5 μg/mL MAb Anti GST-XL665 (Cisbio, 61GSTXLA) and 0.045 μg/mL PAb Anti-phospho ATF2-K (Cisbio, 61P12KAZ), and 10 μL of the mixture was added to the plate to terminate the reaction. After incubation for about 12 h, the plate was read on a Perkin-Elmer Envision reader.
SMILES,IC50 [1],IC50 (JNK1 kinase)
"C[C@@H]1CC[C@@H](Nc2nc(NC(C)(C)C)ncc2C(N)=S)C[C@H]1O [Compound T001, 2-(tert-butylamino)-4-(((1R,3R,4R)-3-hydroxy-4-methylcyclohexyl)amino) pyrimidine-5-carbothioamide]",100 to 500 nM,< 100 nM
"C[C@@H]1CC[C@@H](Nc2nc(NC(C)(C)C)ncc2C#N)C[C@H]1O [Compound T001A, 2-(tert-butylamino)-4-(((1R,3R,4R)-3-hydroxy-4-methylcyclohexyl)amino) pyrimidine-5-carbonitrile]",100 to 500 nM,100 to 500 nM
"C[C@@H]1CC[C@@H](Nc2nc(NC(C)(C)C)ncc2/C(N)=N\O)C[C@H]1O [Compound T002, (E)-2-(tert-butylamino)-N′-hydroxy-4-(((1R,3R,4R)-3-hydroxy-4-methylcyclohexyl)amino)pyrimidine-5-carboximidamide]",100 to 500 nM,< 100 nM
"C[C@@H]1CC[C@@H](Nc2nc(NC(C)(C)C)ncc2C(=N)N)C[C@H]1O [Compound T003, 2-(tert-butylamino)-4-(((1R,3R,4R)-3-hydroxy-4-methylcyclohexyl)amino) pyrimidine-5-carboximidamide]",> 1000 nM,500 to 1000 nM
"C[C@@H]1CC[C@@H](Nc2nc(Nn3cnnc3)ncc2C(N)=O)C[C@H]1O [Compound T004, 2-((4H-1,2,4-triazol-4-yl)amino)-4-(((1R, 3R,4R)-3-hydroxy-4-methylcyclohexyl)amino)pyrimidine-5-carboxamide]",> 1000 nM,> 1000 nM
"C[C@@H]1CC[C@@H](Nc2nc(NC(C)(C)C)ncc2C(C)(C)O)C[C@H]1O [Compound T005, (1R,2R,5R)-5-((2-(tert-butylamino)-5-(2-hydroxypropan-2-yl)pyrimidin-4-yl)amino)-2-methylcyclohexan-1-ol]",> 1000 nM,> 1000 nM
"COC(=O)c1cnc(NC(C)(C)C)nc1N[C@@H]1CC[C@@H](C)[C@H](O)C1 [Compound T005A, Methyl 2-(tert-butylamino)-4-(((IR,3R,4R)-3-hydroxy-4-methylcyclohexyl)amino) pyrimidine-5-carboxylate]",> 1000 nM,> 1000 nM
"CC(C)(C)Nc1ncc(C(N)=O)c(N2CCC(O)CC2)n1 [Compound T006, 2-(tert-butylamino)-4-(4-hydroxypiperidin-l-yl)pyrimidine-5-carboxamide]",> 1000 nM,> 1000 nM
"CC(C)(C)Nc1ncc(C(N)=O)c(NC2CCCN(C(=O)CC#N)C2)n1 (centres unmarked) [Compound T007, 2-(tert-butylamino)-4-((1-(2-cyanoacetyl)piperidin-3-yl)amino)pyrimidine-5-carboxamide]",> 1000 nM,> 1000 nM
"CC(C)(C)Nc1ncc(C(N)=O)c(NC2CCCN(C(=O)CC(=O)O)C2)n1 (stereo not drawn) [Compound T008, 3-(3-((2-(tert-butylamino)-5-carbamoylpyrimidin-4-yl)amino)piperidin-l-yl)-3-oxopropanoic acid]",> 1000 nM,> 1000 nM
"CC(C)(C)Nc1ncc(C(N)=O)c(NCC2CCC(=O)N2)n1 (centres unmarked) [Compound T009, 2-(tert-butylamino)-4-(((5-oxopyrrolidin-2-yl)methyl)amino)pyrimidine-5-carboxamide]",> 1000 nM,> 1000 nM
"COc1ccc(Nc2ncc(C(N)=O)c(N[C@@H]3CC[C@@H](C)[C@H](O)C3)n2)cc1 [Compound T010, 4-(((1R,3R,4R)-3-hydroxy-4-methylcyclohexyl)amino)-2-((4-methoxyphenyl)amino) pyrimidine-5-carboxamide]",< 100 nM,< 100 nM
"CC(C)(C)Nc1ncc(C(N)=O)c(Nc2cccc(C(=O)O)c2)n1 [Compound T011, 3-((2-(tert-butylamino)-5-carbamoylpyrimidin-4-yl)amino) benzoic acid]",> 1000 nM,500 to 1000 nM
"C[C@@H]1CC[C@@H](Nc2nc(NC(C)(C)C)ncc2F)C[C@H]1O [Compound T012, (1R,2R,5R)-5-((2-(tert-butylamino)-5-fluoropyrimidin-4-yl)amino)-2-methylcyclohexan-1-ol]",> 1000 nM,> 1000 nM
"C[C@@H]1CC[C@@H](Nc2nc(NC(C)(C)C)ncc2Cl)C[C@H]1O [Compound T013, (1R,2R,5R)-5-((2-(tert-butylamino)-5-chloropyrimidin-4-yl)amino)-2-methylcyclohexan-1-ol]",> 1000 nM,500 to 1000 nM
"Cc1cnc(NC(C)(C)C)nc1N[C@@H]1CC[C@@H](C)[C@H](O)C1 [Compound T014, (1R,2R,5R)-5-((2-(tert-butylamino)-5-methylpyrimidin-4-yl)amino)-2-methylcyclohex-1-ol]",> 1000 nM,> 1000 nM
"C[C@@H]1CC[C@@H](Nc2nc(NC3CC4(COC4)C3)ncc2C(N)=O)C[C@H]1O [Compound T015, 2-((2-oxaspiro[3.3]heptan-6-yl)amino)-4-(((1R,3R,4R)-3-hydroxy-4-methylcyclohexyl)amino)pyrimidine-5-carboxamide]",500 to 1000 nM,< 100 nM
"CC(C)(C)Nc1ncc(C(N)=O)c(NC2CCC(=O)NC2)n1 (centres unmarked) [Compound T016, 2-(tert-butylamino)-4-((6-oxopiperidin-3-yl)amino)pyrimidine-5-carboxamide]",500 to 1000 nM,< 100 nM
"CC(C)(C)Nc1ncc(C(N)=O)c(NC2CCC(=O)N(CCO)C2)n1 (stereo not drawn) [Compound T017, 2-(tert-butylamino)-4-((l-(2-hydroxyethyl)-6-oxopiperidin-3-yl)amino)pyrimidine-5-carboxamide]",500 to 1000 nM,< 100 nM
"CC(C)(C)Nc1ncc(C(N)=O)c(N2CCCC(CO)C2)n1 (centres unmarked) [Compound T018, 2-(tert-butylamino)-4-(3-(hydroxymethyl)piperidin-1-yl)pyrimidine-5-carboxamide]",500 to 1000 nM,100 to 500 nM
"CC(C)(C)Nc1ncc(C(N)=O)c(N2CCC(CO)C2)n1 (centres unmarked) [Compound T019, 2-(tert-butylamino)-4-(3-(hydroxymethyl)pyrrolidin-1-yl)pyrimidine-5-carboxamide]",500 to 1000 nM,100 to 500 nM
"CC(C)(C)Nc1ncc(C(N)=O)c(N2CC(C(C)(C)O)C2)n1 [Compound T020, 2-(tert-butylamino)-4-(3-(2-hydroxypropan-2-yl)azetidin-1-yl) pyrimidine-5-carboxamide]",500 to 1000 nM,100 to 500 nM
"CC(C)(C)Nc1ncc(C(N)=O)c(NC2CCCN(C(N)=O)C2)n1 (centres unmarked) [Compound T021, 2-(tert-butylamino)-4-((1-carbamoylpiperidin-3-yl)amino) pyrimidine-5-carboxamide]",> 1000 nM,100 to 500 nM
"C[C@@H]1CC[C@@H](Nc2nc(N3CCOCC3)ncc2C(N)=O)C[C@H]1O [Compound T022, 4-(((1R,3R,4R)-3-hydroxy-4-methylcyclohexyl)amino)-2-morpholinopyrimidine-5-carboxamide]",> 1000 nM,500 to 1000 nM
"C[C@@H]1CC[C@@H](Nc2nc(N3CCNC(=O)C3)ncc2C(N)=O)C[C@H]1O [Compound T023, 4-(((1R,3R,4R)-3-hydroxy-4-methylcyclohexyl)amino)-2-(3-oxopiperazin-1-yl)pyrimidine-5-carboxamide]",> 1000 nM,500 to 1000 nM
"CCNC(=O)N1CCC(Nc2ncc(C(N)=O)c(N[C@@H]3CC[C@@H](C)[C@H](O)C3)n2)CC1 [Compound T024, 2-((l-(ethylcarbamoyl)piperidin-4-yl)amino)-4-(((1R,3R,4R)-3-hydroxy-4-methylcyclohexyl)amino)pyrimidine-5-carboxamide]",100 to 500 nM,< 100 nM
"CC(C)(C)Nc1ncc(C(N)=O)c(NC2CCCNC2)n1 (centres unmarked) [Compound T025, 2-(tert-butylamino)-4-(piperidin-3-ylamino)pyrimidine-5-carboxamide]",> 1000 nM,< 100 nM
"CC(C)(C)Nc1ncc(C(N)=O)c(Nc2cccc(CO)c2)n1 [Compound T026, 2-(tert-butylamino)-4-((3-(hydroxymethyl)phenyl)amino)pyrimidine-5-carboxamide]",100 to 500 nM,< 100 nM
